From US20230041563A1, “N-(1,3,4-OXADIAZOL-2-YL)ARYLCARBOXAMIDES OR SALTS THEREOF, PREPARATION METHODS, HERBICIDAL COMPOSITIONS AND USES THEREOF” (priority 2018, published 2023)

Assays:
Format in all cases: in vivo
[1] = system: Abutilon theophrasti; assay: Weeding effect in post-emergence stage (greenhouse pot spray)
Method in brief: (§1)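 Post-emergence foliar spray on 2-3 leaf greenhouse pot plants at 15 to 500 g a.i./ha with methyl oleate emulsifiable concentrate (1.5 liter/ha) added; growth control by fresh weight after 3 weeks.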

[2] = system: Digitaria sanguinalis; assay: as above
Method in brief: as §1

[3] = system: Echinochloa crusgalli; assay: as above
Method in brief: as §1

[4] = system: Japonica rice (Huaidao No. 5); assay: Safety test of control experiments on rice
Excerpt: (§2) The activity level criteria for plant damage (i.e., growth control rate) are as follows: Comparative Experiments: [table]

[5] = system: Indica rice (Huanghuazhan); assay: Safety test of control experiments on rice
Excerpt: as §2

[6] = system: rice and Echinochloa crusgali; assay: Herbicide selection index between rice and Echinochloa crusgali; conditions: average dose causing 10% phytotoxicity to rice divided by average dose causing 90% control efficiency to Echinochloa crusgali
[7] = system: Stellaria media; assay: Weeding effect in post-emergence stage (greenhouse pot spray)
Method in brief: as §1

[8] = system: Amaranthus retroflexus; assay: as above
Method in brief: as §1

[9] = system: Setaria viridis; assay: as above
Method in brief: as §1

[10] = system: weeds; assay: Actual control effects and combined effects of mixtures of active ingredients (i) and (ii), stem-leaf treatment, Gowing method; conditions: stem-leaf treatment, 20 days

Cc1nnc(NC(=O)c2ccc(C(F)(F)F)c([S+]([O-])C3COC3)c2F)o1 (centres unmarked) [Compound 1-82]
Abutilion theophrasti (activity level) ([1]; Table 2, dose 500 g a.i./ha): 5 (Level 5: growth control rate is above 85%)
Digitaria sanguinalis (activity level) ([2]; Table 2, dose 500 g a.i./ha): 5 (Level 5: growth control rate is above 85%)
Echinochloa crusgah (activity level) ([3]; Table 2, dose 500 g a.i./ha): 5 (Level 5: growth control rate is above 85%)
Japonica rice (Huaidao No. 5) (plant damage level) ([4]; Dose 250 g a.i./ha): 0 (Level 0: growth control rate is less than 5%)
Indica rice (Huanghuazhan) (plant damage level) ([5]; Dose 250 g a.i./ha): 0 (Level 0: growth control rate is less than 5%)
Selection index between rice and Echinochloa crusgali [6]: >5
Stellaria media (activity level) ([7]; Table 2, dose 500 g a.i./ha): 5 (Level 5: growth control rate is above 85%)
Amaranthus retroflexus (activity level) ([8]; Table 2, dose 500 g a.i./ha): 5 (Level 5: growth control rate is above 85%)

CCSc1c(C(F)(F)F)ccc(C(=O)Nc2nnco2)c1F [Compound 3-4]
Setaria viridis (activity level) ([9]; Table 3, dose 250 g a.i./ha): 5 (Level 5: growth control rate is above 85%)
Abutilion theophrasti (activity level) ([1]; Table 2, dose 500 g a.i./ha): 5 (Level 5: growth control rate is above 85%)
Digitaria sanguinalis (activity level) ([2]; Table 2, dose 500 g a.i./ha): 5 (Level 5: growth control rate is above 85%)
Digitaria sanguinahs (activity level) ([2]; Table 3, dose 250 g a.i./ha): 5 (Level 5: growth control rate is above 85%)
Echinochloa crusgah (activity level) ([3]; Table 2, dose 500 g a.i./ha): 5 (Level 5: growth control rate is above 85%)
Echinochloa crusgali (activity level) ([3]; Table 3, dose 250 g a.i./ha): 5 (Level 5: growth control rate is above 85%)
Stellaria media (activity level) ([7]; Table 2, dose 500 g a.i./ha): 5 (Level 5: growth control rate is above 85%)
Amaranthus retroflexus (activity level) ([8]; Table 2, dose 500 g a.i./ha): 5 (Level 5: growth control rate is above 85%)

CSc1c(C(F)(F)F)ccc(C(=O)Nc2nnc(C)o2)c1F [Compound 1-1]
Setaria viridis (activity level) ([9]; Table 3, dose 7.5 g a.i./ha): 0 (Level 0: growth control rate is less than 5%)
Setaria viridis (activity level) ([9]; Table 3, dose 15 g a.i./ha): 0 (Level 0: growth control rate is less than 5%)
Setaria viridis (activity level) ([9]; Table 3, dose 30 g a.i./ha): 1 (Level 1: growth control rate is greater than or equal to 5% and less than 20%)
Setaria viridis (activity level) ([9]; Table 3, dose 60 g a.i./ha): 1 (Level 1: growth control rate is greater than or equal to 5% and less than 20%)
Setaria viridis (activity level) ([9]; Table 3, dose 120 g a.i./ha): 2 (Level 2: growth control rate is greater than or equal to 20% and less than 40%)
Abutilion theophrasti (activity level) ([1]; Table 2, dose 60 g a.i./ha): 2 (Level 2: growth control rate is greater than or equal to 20% and less than 40%)
Abutilion theophrasti (activity level) ([1]; Table 2, dose 125 g a.i./ha): 4 (Level 4: growth control rate is greater than or equal to 60% and less than 85%)
Abutilion theophrasti (activity level) ([1]; Table 2, dose 250 g a.i./ha): 4 (Level 4: growth control rate is greater than or equal to 60% and less than 85%)
Abutilion theophrasti (activity level) ([1]; Table 2, dose 500 g a.i./ha): 4 (Level 4: growth control rate is greater than or equal to 60% and less than 85%)
Abutilon theophrasti (activity level) ([1]; Table 3, dose 60 g a.i./ha): 2 (Level 2: growth control rate is greater than or equal to 20% and less than 40%)
Abutilon theophrasti (activity level) ([1]; Table 3, dose 120 g a.i./ha): 4 (Level 4: growth control rate is greater than or equal to 60% and less than 85%)
Digitaria sanguinalis (activity level) ([2]; Table 2, dose 60 g a.i./ha): 1 (Level 1: growth control rate is greater than or equal to 5% and less than 20%)
Digitaria sanguinalis (activity level) ([2]; Table 2, dose 125 g a.i./ha): 2 (Level 2: growth control rate is greater than or equal to 20% and less than 40%)
Digitaria sanguinalis (activity level) ([2]; Table 2, dose 250 g a.i./ha): 3 (Level 3: growth control rate is greater than or equal to 40% and less than 60%)
Digitaria sanguinalis (activity level) ([2]; Table 2, dose 500 g a.i./ha): 4 (Level 4: growth control rate is greater than or equal to 60% and less than 85%)
Digitaria sanguinahs (activity level) ([2]; Table 3, dose 7.5 g a.i./ha): 0 (Level 0: growth control rate is less than 5%)
Digitaria sanguinahs (activity level) ([2]; Table 3, dose 15 g a.i./ha): 0 (Level 0: growth control rate is less than 5%)
Digitaria sanguinahs (activity level) ([2]; Table 3, dose 30 g a.i./ha): 1 (Level 1: growth control rate is greater than or equal to 5% and less than 20%)
Digitaria sanguinahs (activity level) ([2]; Table 3, dose 60 g a.i./ha): 1 (Level 1: growth control rate is greater than or equal to 5% and less than 20%)
Digitaria sanguinahs (activity level) ([2]; Table 3, dose 120 g a.i./ha): 2 (Level 2: growth control rate is greater than or equal to 20% and less than 40%)
Echinochloa crusgah (activity level) ([3]; Table 2, dose 60 g a.i./ha): 2 (Level 2: growth control rate is greater than or equal to 20% and less than 40%)
Echinochloa crusgah (activity level) ([3]; Table 2, dose 125 g a.i./ha): 4 (Level 4: growth control rate is greater than or equal to 60% and less than 85%)
Echinochloa crusgah (activity level) ([3]; Table 2, dose 250 g a.i./ha): 4 (Level 4: growth control rate is greater than or equal to 60% and less than 85%)
Echinochloa crusgah (activity level) ([3]; Table 2, dose 500 g a.i./ha): 4 (Level 4: growth control rate is greater than or equal to 60% and less than 85%)
Echinochloa crusgali (activity level) ([3]; Table 3, dose 7.5 g a.i./ha): 0 (Level 0: growth control rate is less than 5%)
Echinochloa crusgali (activity level) ([3]; Table 3, dose 15 g a.i./ha): 1 (Level 1: growth control rate is greater than or equal to 5% and less than 20%)
Echinochloa crusgali (activity level) ([3]; Table 3, dose 30 g a.i./ha): 2 (Level 2: growth control rate is greater than or equal to 20% and less than 40%)
Echinochloa crusgali (activity level) ([3]; Table 3, dose 60 g a.i./ha): 2 (Level 2: growth control rate is greater than or equal to 20% and less than 40%)
Control effect of (i) alone at corresponding dose ([10]; Cyperus difformis, (i) 1 g a.i./mu): 6.2%
Control effect of (i) alone at corresponding dose ([10]; Cyperus difformis, (i) 5 g a.i./mu): 30.6%
Control effect of (i) alone at corresponding dose ([10]; Echinochloa phyllopogon, (i) 1 g a.i./mu): 8.3%
Control effect of (i) alone at corresponding dose ([10]; Echinochloa phyllopogon, (i) 2 g a.i./mu): 18.7%
Control effect of (i) alone at corresponding dose ([10]; Echinochloa phyllopogon, (i) 3 g a.i./mu): 43.1%
Control effect of (i) alone at corresponding dose ([10]; Leptochloa chinensis, (i) 5 g a.i./mu): 3.8%
Control effect of (i) alone at corresponding dose ([10]; Leptochloa chinensis, (i) 15 g a.i./mu): 20.3%
Control effect of (i) alone at corresponding dose ([10]; Monochoria vaginalis, (i) 5 g a.i./mu): 9.6%
Control effect of (i) alone at corresponding dose ([10]; Monochoria vaginalis, (i) 6 g a.i./mu): 12.3%
Control effect of (i) alone at corresponding dose ([10]; Monochoria vaginalis, (i) 7.5 g a.i./mu): 15.1%
Control effect of (i) alone at corresponding dose ([10]; Monochoria vaginalis, (i) 15 g a.i./mu): 23.9%
Control effect of (i) alone at corresponding dose ([10]; Sagittaria trifolia, (i) 1 g a.i./mu): 10.9%
Control effect of (i) alone at corresponding dose ([10]; Sagittaria trifolia, (i) 5 g a.i./mu): 33.5%
Stellaria media (activity level) ([7]; Table 2, dose 60 g a.i./ha): 3 (Level 3: growth control rate is greater than or equal to 40% and less than 60%)
Stellaria media (activity level) ([7]; Table 2, dose 125 g a.i./ha): 4 (Level 4: growth control rate is greater than or equal to 60% and less than 85%)
Stellaria media (activity level) ([7]; Table 2, dose 250 g a.i./ha): 4 (Level 4: growth control rate is greater than or equal to 60% and less than 85%)
Stellaria media (activity level) ([7]; Table 2, dose 500 g a.i./ha): 4 (Level 4: growth control rate is greater than or equal to 60% and less than 85%)
Amaranthus retroflexus (activity level) ([8]; Table 2, dose 60 g a.i./ha): 4 (Level 4: growth control rate is greater than or equal to 60% and less than 85%)
Amaranthus retroflexus (activity level) ([8]; Table 2, dose 125 g a.i./ha): 4 (Level 4: growth control rate is greater than or equal to 60% and less than 85%)
Amaranthus retroflexus (activity level) ([8]; Table 2, dose 250 g a.i./ha): 4 (Level 4: growth control rate is greater than or equal to 60% and less than 85%)
Amaranthus retroflexus (activity level) ([8]; Table 2, dose 500 g a.i./ha): 4 (Level 4: growth control rate is greater than or equal to 60% and less than 85%)

Cc1nnc(NC(=O)c2ccc(C(F)(F)F)c(N3CCCC3=O)c2Cl)o1 [Control Compound C, reference compound]
Japonica rice (Huaidao No. 5) (plant damage level) ([4]; Dose 125 g a.i./ha): 4 (Level 4: growth control rate is greater than or equal to 60% and less than 85%)
Indica rice (Huanghuazhan) (plant damage level) ([5]; Dose 125 g a.i./ha): 5 (Level 5: growth control rate is above 85%)
Selection index between rice and Echinochloa crusgali [6]: 1.1

CCS(=O)(=O)c1c(C(F)(F)F)ccc(C(=O)Nc2nnc(C)o2)c1Cl [Control Compound D, reference compound]
Japonica rice (Huaidao No. 5) (plant damage level) ([4]; Dose 60 g a.i./ha): 5 (Level 5: growth control rate is above 85%)
Indica rice (Huanghuazhan) (plant damage level) ([5]; Dose 60 g a.i./ha): 5 (Level 5: growth control rate is above 85%)
Selection index between rice and Echinochloa crusgali [6]: 1

CCCS(=O)(=O)c1c(C(F)(F)F)ccc(C(=O)Nc2nnc(C)o2)c1F [Compound 1-9]
Abutilion theophrasti (activity level) ([1]; Table 2, dose 125 g a.i./ha): 5 (Level 5: growth control rate is above 85%)
Abutilion theophrasti (activity level) ([1]; Table 2, dose 250 g a.i./ha): 5 (Level 5: growth control rate is above 85%)
Digitaria sanguinalis (activity level) ([2]; Table 2, dose 125 g a.i./ha): 5 (Level 5: growth control rate is above 85%)
Digitaria sanguinalis (activity level) ([2]; Table 2, dose 250 g a.i./ha): 5 (Level 5: growth control rate is above 85%)
Echinochloa crusgah (activity level) ([3]; Table 2, dose 125 g a.i./ha): 5 (Level 5: growth control rate is above 85%)
Echinochloa crusgah (activity level) ([3]; Table 2, dose 250 g a.i./ha): 5 (Level 5: growth control rate is above 85%)
Japonica rice (Huaidao No. 5) (plant damage level) ([4]; Dose 250 g a.i./ha): 0 (Level 0: growth control rate is less than 5%)
Indica rice (Huanghuazhan) (plant damage level) ([5]; Dose 250 g a.i./ha): 0 (Level 0: growth control rate is less than 5%)
Selection index between rice and Echinochloa crusgali [6]: >5
Stellaria media (activity level) ([7]; Table 2, dose 125 g a.i./ha): 5 (Level 5: growth control rate is above 85%)
Stellaria media (activity level) ([7]; Table 2, dose 250 g a.i./ha): 5 (Level 5: growth control rate is above 85%)
Amaranthus retroflexus (activity level) ([8]; Table 2, dose 125 g a.i./ha): 5 (Level 5: growth control rate is above 85%)
Amaranthus retroflexus (activity level) ([8]; Table 2, dose 250 g a.i./ha): 5 (Level 5: growth control rate is above 85%)

Cc1nnc(NC(=O)c2ccc(C(F)(F)F)c(S(C)(=O)=O)c2C)o1 [Control Compound B, reference compound]
Japonica rice (Huaidao No. 5) (plant damage level) ([4]; Dose 125 g a.i./ha): 3 (Level 3: growth control rate is greater than or equal to 40% and less than 60%)
Japonica rice (Huaidao No. 5) (plant damage level) ([4]; Dose 250 g a.i./ha): 3 (Level 3: growth control rate is greater than or equal to 40% and less than 60%)
Indica rice (Huanghuazhan) (plant damage level) ([5]; Dose 125 g a.i./ha): 3 (Level 3: growth control rate is greater than or equal to 40% and less than 60%)
Indica rice (Huanghuazhan) (plant damage level) ([5]; Dose 250 g a.i./ha): 4 (Level 4: growth control rate is greater than or equal to 60% and less than 85%)
Selection index between rice and Echinochloa crusgali [6]: 0.8
